Read-outs that look alike come from different tables or passages of the source.
Test system: HT-29 cells
Experiment: HT29 Cells 0FBS Assay In Vitro (TNF-α/SMAC mimetic/zVAD-FMK induced necroptosis, CellTiter-Glo cell viability)
Assay type: cell-based
Details: Homo sapiens, HT-29 cells, FBS free medium, TNF-α (10 ng/ml), SMAC mimetic (6 uM), zVAD-FMK (10 μM), 20 hours, geometric mean EC50
Method in brief: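 HT-29 cells (5,000/well, seeded overnight) in serum-free McCoy's 5A were stimulated with TNF-α 10 ng/ml, SMAC mimetic 6 μM and zVAD-FMK 10 μM to induce necroptosis. Compound added as 10-point 3-fold series for 20 h at 37° C. CellTiter-Glo luminescence gives viability; EC50 is geometric mean of duplicate dose-responses.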

[1] = read-out: Cell activity (EC50) of Compounds 117-281
[2] = read-out: Cell activity (EC50) of Compounds 1-116

Structure (SMILES)	EC50 [1] [µM]	EC50 [2] [µM]
Cc1nn(-c2cc(OC3CN(C(=O)N4N=CC[C@H]4c4cc(F)cc(F)c4)C3)c(F)cn2)c(C)c1C(=O)NC1COC1 [compound 217, (S)-1-(4-((1-(5-(3,5-difluorophenyl)-4,5-dihydro-1H-pyrazole-1-carbonyl)azetidin-3-yl)oxy)-5-fluoropyridin-2-yl)-3,5-dimethyl-N-(oxetan-3-yl)-1H-pyrazole-4-carboxamide]	0.0001 to 0.1	
Cc1c(-c2cc(OC3CN(C(=O)N4N=CC[C@H]4c4cc(F)cc(F)c4)C3)c(F)cn2)nn(C)c1C1=NCCN1C [compound 267, (S)-(5-(3,5-difluorophenyl)-4,5-dihydro-1H-pyrazol-1-yl)(3-((2-(1,4-dimethyl-5-(1-methyl-4,5-dihydro-1H-imidazol-2-yl)-1H-pyrazol-3-yl)-5-fluoropyridin-4-yl)oxy)azetidin-1-yl)methanone]	0.1 to 1	
Cc1nn(-c2cc(OC3CN(C(=O)N4N=CC[C@H]4c4cc(F)cc(F)c4)C3)c(F)cn2)c(C)c1C(=O)N(C)C [compound 192, (S)-1-(4-((1-(5-(3,5-difluorophenyl)-4,5-dihydro-1H-pyrazole-1-carbonyl)azetidin-3-yl)oxy)-5-fluoropyridin-2-yl)-N,N,3,5-tetramethyl-1H-pyrazole-4-carboxamide]	0.0001 to 0.1	
Cc1onc(N)c1-c1cc(OC2CN(C(=O)N3N=CC[C@H]3c3cc(F)cc(F)c3)C2)c(F)cn1 [compound 228, (S)-(3-((2-(3-amino-5-methylisoxazol-4-yl)-5-fluoropyridin-4-yl)oxy)azetidin-1-yl)(5-(3,5-difluorophenyl)-4,5-dihydro-1H-pyrazol-1-yl)methanone]	0.0001 to 0.1	
Cc1nn(-c2cc(OC3CN(C(=O)N4N=CC[C@H]4c4cc(F)cc(F)c4)C3)c(F)cn2)c(C)c1CC(=O)N1CCOCC1 [compound 224, (S)-2-(1-(4-((1-(5-(3,5-difluorophenyl)-4,5-dihydro-1H-pyrazole-1-carbonyl)azetidin-3-yl)oxy)-5-fluoropyridin-2-yl)-3,5-dimethyl-1H-pyrazol-4-yl)-1-morpholinoethan-1-one]	0.0001 to 0.1	
Cc1nnc(-c2ccc(F)c(OC3CN(C(=O)N4N=CC[C@H]4c4cc(F)cc(F)c4)C3)n2)s1 [compound 24, (S)-(5-(3,5-difluorophenyl)-4,5-dihydro-1H-pyrazol-1-yl)(3-((3-fluoro-6-(5-methyl-1,3,4-thiadiazol-2-yl)pyridin-2-yl)oxy)azetidin-1-yl)methanone]		0.0001 to 0.1
Cc1c(S(C)(=O)=O)nn(C)c1-c1cc(OC2CN(C(=O)N3N=CC[C@H]3c3cc(F)cc(F)c3)C2)c(F)cn1 [compound 177, (5-(3,5-difluorophenyl)-4,5-dihydro-1H-pyrazol-1-yl)(3-((2-(1,4-dimethyl-3-(methylsulfonyl)-1H-pyrazol-5-yl)-5-fluoropyridin-4-yl)oxy)azetidin-1-yl)methanone]	0.0001 to 0.1	
Cc1nnc(-c2ccc(F)c(OC3CN(C(=O)N4N=CCC4c4cc(F)cc(F)c4)C3)n2)o1 (stereo not drawn) [compound 27, (5-(3,5-difluorophenyl)-4,5-dihydro-1H-pyrazol-1-yl)(3-((3-fluoro-6-(5-methyl-1,3,4-oxadiazol-2-yl)pyridin-2-yl)oxy)azetidin-1-yl)methanone]		0.1 to 1
Cc1nn(-c2cc(OC3CN(C(=O)N4N=CC[C@H]4c4cc(F)cc(F)c4)C3)c(F)cn2)c(C)c1C(=O)N1CCCC1 [compound 194, (S)-(5-(3,5-difluorophenyl)-4,5-dihydro-1H-pyrazol-1-yl)(3-((2-(3,5-dimethyl-4-(pyrrolidine-1-carbonyl)-1H-pyrazol-1-yl)-5-fluoropyridin-4-yl)oxy)azetidin-1-yl)methanone]	0.0001 to 0.1	
Cc1c(-c2cc(OC3CN(C(=O)N4N=CC[C@H]4c4cc(F)cc(F)c4)C3)c(F)cn2)c(C)n(C)c1N [compound 206, (S)-(3-((2-(5-amino-1,2,4-trimethyl-1H-pyrrol-3-yl)-5-fluoropyridin-4-yl)oxy)azetidin-1-yl)(5-(3,5-difluorophenyl)-4,5-dihydro-1H-pyrazol-1-yl)methanone]	0.0001 to 0.1	
Cc1nn(CC(N)=O)c(C)c1-c1ncc(F)c(OC2CN(C(=O)N3N=CC[C@H]3c3cc(F)cc(F)c3)C2)n1 [compound 99, (S)-2-(4-(4-((1-(5-(3,5-difluorophenyl)-4,5-dihydro-1H-pyrazole-1-carbonyl)azetidin-3-yl)oxy)-5-fluoropyrimidin-2-yl)-3,5-dimethyl-1H-pyrazol-1-yl)acetamide]		0.0001 to 0.1
Cc1nn(CC(=O)N2CCOCC2)c(C)c1-c1cc(OC2CN(C(=O)N3N=CC[C@H]3c3cc(F)cc(F)c3)C2)c(F)cn1 [compound 96, (S)-2-(4-(4-((1-(5-(3,5-difluorophenyl)-4,5-dihydro-1H-pyrazole-1-carbonyl)azetidin-3-yl)oxy)-5-fluoropyridin-2-yl)-3,5-dimethyl-1H-pyrazol-1-yl)-1-morpholinoethan-1-one]		0.0001 to 0.1
CNC(=O)Cc1c(C)nn(-c2cc(OC3CN(C(=O)N4N=CC[C@H]4c4cc(F)cc(F)c4)C3)c(F)cn2)c1C [compound 226, (S)-2-(1-(4-((1-(5-(3,5-difluorophenyl)-4,5-dihydro-1H-pyrazole-1-carbonyl)azetidin-3-yl)oxy)-5-fluoropyridin-2-yl)-3,5-dimethyl-1H-pyrazol-4-yl)-N-methylacetamide]	0.0001 to 0.1	
CNC(=O)c1cnn(C)c1-c1cc(OC2CN(C(=O)N3N=CC[C@H]3c3cc(F)cc(F)c3)C2)c(F)cn1 [compound 67, (S)-5-(4-((1-(5-(3,5-difluorophenyl)-4,5-dihydro-1H-pyrazole-1-carbonyl)azetidin-3-yl)oxy)-5-fluoropyridin-2-yl)-N,1-dimethyl-1H-pyrazole-4-carboxamide]		0.0001 to 0.1
Cc1nn(C2COC2)c(C)c1-c1cc(OC2CN(C(=O)N3N=CC[C@H]3c3cc(F)cc(F)c3)C2)c(F)cn1 [compound 130, (S)-(5-(3,5-difluorophenyl)-4,5-dihydro-1H-pyrazol-1-yl)(3-((2-(3,5-dimethyl-1-(oxetan-3-yl)-1H-pyrazol-4-yl)-5-fluoropyridin-4-yl)oxy)azetidin-1-yl)methanone]	0.0001 to 0.1	
CN(C)c1cnn(C)c1-c1cc(OC2CN(C(=O)N3N=CC[C@H]3c3cc(F)cc(F)c3)C2)c(F)cn1 [compound 55, (S)-(5-(3,5-difluorophenyl)-4,5-dihydro-1H-pyrazol-1-yl)(3-((2-(4-(dimethylamino)-1-methyl-1H-pyrazol-5-yl)-5-fluoropyridin-4-yl)oxy)azetidin-1-yl)methanone]		0.0001 to 0.1
Cc1nn(-c2cc(OC3CN(C(=O)N4N=CC[C@H]4c4cc(F)cc(F)c4)C3)c(F)cn2)c(C)c1CC(=O)N(C)C [compound 239, (S)-2-(1-(4-((1-(5-(3,5-difluorophenyl)-4,5-dihydro-1H-pyrazole-1-carbonyl)azetidin-3-yl)oxy)-5-fluoropyridin-2-yl)-3,5-dimethyl-1H-pyrazol-4-yl)-N,N-dimethylacetamide]	0.0001 to 0.1	
Cc1c(N2CC(O)C2)nn(C)c1-c1cc(OC2CN(C(=O)N3N=CC[C@H]3c3cc(F)cc(F)c3)C2)c(F)cn1 [compound 213, (S)-(5-(3,5-difluorophenyl)-4,5-dihydro-1H-pyrazol-1-yl)(3-((5-fluoro-2-(3-(3-hydroxyazetidin-1-yl)-1,4-dimethyl-1H-pyrazol-5-yl)pyridin-4-yl)oxy)azetidin-1-yl)methanone]	0.0001 to 0.1	
CC(C)CC(=O)Nc1cnn(C)c1-c1cc(OC2CN(C(=O)N3N=CC[C@H]3c3cc(F)cc(F)c3)C2)c(F)cn1 [compound 60, (S)—N-(5-(4-((1-(5-(3,5-difluorophenyl)-4,5-dihydro-1H-pyrazole-1-carbonyl)azetidin-3-yl)oxy)-5-fluoropyridin-2-yl)-1-methyl-1H-pyrazol-4-yl)-3-methylbutanamide]		0.0001 to 0.1
Cc1nn(-c2cc(OC3CN(C(=O)N4N=CC[C@H]4c4cc(F)cc(F)c4)C3)c(F)cn2)c(C)c1C(=O)N1CCC1 [compound 195, (S)-azetidin-1-yl(1-(4-((1-(5-(3,5-difluorophenyl)-4,5-dihydro-1H-pyrazole-1-carbonyl)azetidin-3-yl)oxy)-5-fluoropyridin-2-yl)-3,5-dimethyl-1H-pyrazol-4-yl)methanone]	0.0001 to 0.1	
CC(=O)Nc1c(C)nn(-c2cc(OC3CN(C(=O)N4N=CC[C@H]4c4cc(F)cc(F)c4)C3)c(F)cn2)c1C [compound 140, (S)—N-(1-(4-((1-(5-(3,5-difluorophenyl)-4,5-dihydro-1H-pyrazole-1-carbonyl)azetidin-3-yl)oxy)-5-fluoropyridin-2-yl)-3,5-dimethyl-1H-pyrazol-4-yl)acetamide]	0.0001 to 0.1	
Cc1nc(C)n(-c2cc(OC3CN(C(=O)N4N=CC[C@H]4c4cc(F)cc(F)c4)C3)c(F)cn2)n1 [compound 104, (S)-(5-(3,5-difluorophenyl)-4,5-dihydro-1H-pyrazol-1-yl)(3-((2-(3,5-dimethyl-1H-1,2,4-triazol-1-yl)-5-fluoropyridin-4-yl)oxy)azetidin-1-yl)methanone]		0.0001 to 0.1
COCC(=O)Nc1cnn(C)c1-c1cc(OC2CN(C(=O)N3N=CC[C@H]3c3cc(F)cc(F)c3)C2)c(F)cn1 [compound 121, (S)—N-(5-(4-((1-(5-(3,5-difluorophenyl)-4,5-dihydro-1H-pyrazole-1-carbonyl)azetidin-3-yl)oxy)-5-fluoropyridin-2-yl)-1-methyl-1H-pyrazol-4-yl)-2-methoxyacetamide]	0.0001 to 0.1	
Cc1c(-c2cc(OC3CN(C(=O)N4N=CC[C@H]4c4cc(F)cc(F)c4)C3)c(F)cn2)c(CO)nn1CC1CC1 [compound 168, (S)-(3-((2-(1-(cyclopropylmethyl)-3-(hydroxymethyl)-5-methyl-1H-pyrazol-4-yl)-5-fluoropyridin-4-yl)oxy)azetidin-1-yl)(5-(3,5-difluorophenyl)-4,5-dihydro-1H-pyrazol-1-yl)methanone]	0.0001 to 0.1	

From patent publication US12655125B2 (SIRONAX LTD., priority 2020, dated 2026)
